According to the supplement of paper PMC10627819:

Experiments:
S. pneumoniae D39V [1] = assay: fitness (endpoint OD595 vs no drug) (fraction); higher = more growth
Outline: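 Fitness was measured as bacterial growth in 384-well plates inoculated at OD595 0.01 (30 µl, or 55 µl for S. pneumoniae). Media were TSB, LB Lennox or CY, at 37 °C. OD595 was read every 30 min for 14 h and background-subtracted against the first reading. Fitness is OD595 at the transition into stationary phase divided by the robust mean of no-drug control wells, capped at 1.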

B. subtilis 168 = assay: Bliss interaction score (quartile over a dose matrix) (fitness difference); higher = more antagonism (negative = synergy)
Outline: (§1)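 The Bliss score was calculated by subtracting the expected fitness, the product of single-drug values, from the observed fitness. OD595 at entry into stationary phase, over the plate's robust no-drug mean and capped at 1, served as the fitness readout. Single-drug values were inferred from combination data, and scores are summarised by quartiles across technical, biological and donor/recipient replicates.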

S. aureus DSM 20231 = assay: as above
Outline: as §1

S. aureus Newman = assay: as above
Outline: as §1

S. pneumoniae D39V [2] = assay: as above
Outline: as §1
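Wherever Bliss interaction score (quartile over a dose matrix) is given: first quartile when negative (synergy) and third quartile when positive (antagonism).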

CN(C)C(=O)C(CCN1CCC(O)(c2ccc(Cl)cc2)CC1)(c1ccccc1)c1ccccc1 [Loperamide] + CO[C@H]1/C=C/O[C@@]2(C)Oc3c(C)c(O)c4c(O)c(c(/C=N/N5CCN(C)CC5)c(O)c4c3C2=O)NC(=O)/C(C)=C\C=C\[C@H](C)[C@H](O)[C@@H](C)[C@@H](O)[C@@H](C)[C@H](OC(C)=O)[C@@H]1C [Rifampicin]
fitness, S. pneumoniae D39V [1]
Conditions | first compound 17.14 µg/mL | first compound 34.28 µg/mL
partner 0.05 µg/mL | 0.875 | –
partner 0.2 µg/mL | 0.145 | 0.136

fitness, S. pneumoniae D39V [1], one replicate
Conditions | first compound 20 µg/mL | first compound 40 µg/mL | first compound 68.57 µg/mL | first compound 80 µg/mL
partner 0.025 µg/mL | 0.92 | 0.921 | – | 0.701
partner 0.05 µg/mL | – | – | 0.833 | –
partner 0.1 µg/mL | – | – | 0.544 | –
partner 0.2 µg/mL | 0 | 0 | 0.14 | 0

Conditions | Bliss interaction score
B. subtilis 168 | 0.161
S. aureus DSM 20231 | -0.0475
S. aureus Newman | 0.012
S. pneumoniae D39V [2] | -0.0733

CN(C)C(=O)C(CCN1CCC(O)(c2ccc(Cl)cc2)CC1)(c1ccccc1)c1ccccc1 [Loperamide] + Clc1ccc(COC(Cn2ccnc2)c2ccc(Cl)cc2Cl)c(Cl)c1 [Miconazole]
fitness, S. pneumoniae D39V [1]
Conditions | partner 1.073 µg/mL | partner 1.25 µg/mL | partner 2.145 µg/mL | partner 2.5 µg/mL | partner 4.29 µg/mL | partner 5 µg/mL
first compound 17.14 µg/mL | – | 0.963 | – | 0.954 | – | 0.933
first compound 20 µg/mL | ≥ 1 | – | ≥ 1 | – | 0.926 | –
first compound 34.28 µg/mL | – | 0.884 | – | 0.907 | – | 0.925
first compound 40 µg/mL | ≥ 1 | – | 0.955 | – | 0.731 | –

S. pneumoniae D39V [1], first compound 68.57 µg/mL, one replicate
Conditions | fitness
partner 1.25 µg/mL | 0.857
partner 2.5 µg/mL | 0.85
partner 5 µg/mL | 0.923

Conditions | Bliss interaction score
B. subtilis 168 | -0.136
S. aureus DSM 20231 | 0.0862
S. aureus Newman | -0.158
S. pneumoniae D39V [2] | -0.0772

CN(C)C(=O)C(CCN1CCC(O)(c2ccc(Cl)cc2)CC1)(c1ccccc1)c1ccccc1 [Loperamide] + Cn1nnc(-c2ccc(-c3ccc(N4C[C@H](CO)OC4=O)cc3F)cn2)n1 [Tedizolid]
fitness, S. pneumoniae D39V [1]
Conditions | first compound 17.14 µg/mL | first compound 20 µg/mL | first compound 34.28 µg/mL | first compound 40 µg/mL | first compound 80 µg/mL
partner 0.03125 µg/mL | – | 0.997 | – | ≥ 1 | ≥ 1
partner 0.0625 µg/mL | – | ≥ 1 | – | ≥ 1 | ≥ 1
partner 0.125 µg/mL | 0.933 | 0.908 | 0.961 | 0.94 | 0.976
partner 0.5 µg/mL | 0.532 | – | 0.529 | – | –

S. pneumoniae D39V [1], first compound 68.57 µg/mL, one replicate
Conditions | fitness
partner 0.125 µg/mL | 0.979
partner 0.25 µg/mL | 0.963
partner 0.5 µg/mL | 0.468

Conditions | Bliss interaction score
B. subtilis 168 | 0.06
S. aureus DSM 20231 | 0.198
S. aureus Newman | 0.102
S. pneumoniae D39V [2] | 0.243

CN(C)C(=O)C(CCN1CCC(O)(c2ccc(Cl)cc2)CC1)(c1ccccc1)c1ccccc1 [Loperamide] + O=C1CN(/N=C/c2ccc([N+](=O)[O-])o2)C(=O)N1 [Nitrofurantoin]
S. pneumoniae D39V [1]
Conditions | fitness
first compound 17.14 µg/mL, partner 2 µg/mL | 0.906
first compound 17.14 µg/mL, partner 4 µg/mL | 0.924
first compound 17.14 µg/mL, partner 8 µg/mL | 0.856
first compound 20 µg/mL, partner 1.285 µg/mL | ≥ 1
first compound 20 µg/mL, partner 2.57 µg/mL | 0.98
first compound 34.28 µg/mL, partner 2 µg/mL | 0.904
first compound 34.28 µg/mL, partner 4 µg/mL | 0.941
first compound 34.28 µg/mL, partner 8 µg/mL | 0.883
first compound 40 µg/mL, partner 1.285 µg/mL | ≥ 1
first compound 40 µg/mL, partner 2.57 µg/mL | 0.981
first compound 80 µg/mL, partner 1.285 µg/mL | 0.805
first compound 80 µg/mL, partner 2.57 µg/mL | 0.821

S. pneumoniae D39V [1], one replicate
Conditions | fitness
first compound 20 µg/mL, partner 5.14 µg/mL | ≥ 1
first compound 40 µg/mL, partner 5.14 µg/mL | ≥ 1
first compound 68.57 µg/mL, partner 2 µg/mL | 0.901
first compound 68.57 µg/mL, partner 4 µg/mL | 0.914
first compound 68.57 µg/mL, partner 8 µg/mL | 0.851
first compound 80 µg/mL, partner 5.14 µg/mL | 0.806

Conditions | Bliss interaction score
B. subtilis 168 | 0.0384
S. aureus DSM 20231 | 0.0206
S. aureus Newman | 0.045
S. pneumoniae D39V [2] | 0.106

CCN(CC)CCOC(=O)c1ccc(N)cc1 [Procaine] + CO[C@H]1/C=C/O[C@@]2(C)Oc3c(C)c(O)c4c(O)c(c(/C=N/N5CCN(C)CC5)c(O)c4c3C2=O)NC(=O)/C(C)=C\C=C\[C@H](C)[C@H](O)[C@@H](C)[C@@H](O)[C@@H](C)[C@H](OC(C)=O)[C@@H]1C [Rifampicin]
S. pneumoniae D39V [1], partner 0.025 µg/mL, one replicate
Conditions | fitness
first compound 85.5 µg/mL | 0.903
first compound 171 µg/mL | 0.875
first compound 342 µg/mL | 0.919

fitness, S. pneumoniae D39V [1]
Conditions | first compound 85.5 µg/mL | first compound 171 µg/mL | first compound 342 µg/mL
partner 0.05 µg/mL | 0.927 | 0.909 | 0.984
partner 0.2 µg/mL | 0.102 | 0.0616 | 0.132

Conditions | Bliss interaction score
B. subtilis 168 | -0.0578
S. aureus DSM 20231 | -0.054
S. aureus Newman | -0.0206
S. pneumoniae D39V [2] | 0.0704
